According to paper PMC8352872, “Biochemical and structural studies of target lectin SapL1 from the emerging opportunistic microfungus Scedosporium apiospermum” (Scientific Reports, 2021):

Legend:
SapL1 [1] = biological target: T1, SapL1 (Scedosporium apiospermum, UniProt A0A084FYP2); assay: ITC (stoichiometry fixed to […]); type: binding
T1 construct: gene SAPIO_CDS9261; carbohydrate recognition domain, residues 75-369

SapL1 [2] = biological target: T1, SapL1; assay: (X-ray) and ITC (stoichiometry fixed to […]); type: binding
[3] = biological target: the molecule itself; assay: dynamic light scattering; protein at 1 mg/mL in 50 mM Tris-HCl, 100 mM NaCl, pH 8.5, measured in triplicate after centrifugation; data not shown

C[C@@H]1OC(O)[C@@H](O)[C@H](O)[C@@H]1O (stereo partly drawn) [L-fucose]
Kd (SapL1 [1]): 225 ± 1.52 µM

CO[C@@H]1O[C@@H](C)[C@@H](O)[C@@H](O)[C@@H]1O [α-methyl-L-fucoside, methyl-α-L-fucopyranoside]
Kd (SapL1 [2]): 190 ± 1.44 µM

B1: Scedosporium apiospermum Lectin 1 (SapL1), carbohydrate recognition domain, residues 75-369 (domain or fragment)
chain: MSGVLQISFPAGIAAIRNNSSLRVYEAALDGGVREAQYEGRWAGGKPDNVIATGKIGTPIAATSVGFQYIRVYYVGADNKAREACWDGKGWYTGAFVKDVAPYSSIGAVFLGKNIVVRVYTQNHDNTIQEWVWDSPSTGWTAGANFGAALPGTAIAATSWGAGPYHIRVYFQDTNRNVIESGWDGSGWYTGGLKISNQSPRASLGATSWGESGSSLGIRLYYATQDNLIKEKAWDGGGGWYDGGFQQRSIPGSRVAAIPLPVLRVYLQNGTEVSGITEYAWNSGWVVGQAVLPPA
notes: the first 74 residues of the annotated protein, which the authors suspect to be a misannotation, are left out; In the crystal all 295 amino acids are visible except the N-terminal methionine; also called hypothetical protein XP_016640003.1; source: E. coli BL21trxB (DE3), pProNde vector, purified (IMAC, TEV cleavage, second His-trap pass); not shown: His6, N-terminal, cleaved
stoichiometry N [3]: 2
